Data as given in patent publication US12098127B2, “Salt form of estrogen receptor downregulator, crystalline form thereof, and preparation method therefor” (LUOXIN PHARMACEUTICAL (SHANGHAI) CO., LTD., priority 2018, dated 2024).
Values after ≈ are worked out from the molar mass of the structure shown. Read-outs that look alike come from different tables or passages of the source.

Key:
[1] = Solubility test in water and biological vehicles (FaSSIF, FeSSIF); type: physicochemical; details: for solubility at 24 h: thermodynamic from solid, 37° C., HPLC, crystal form A calculated based on the free acid
[2] = In vivo PK experiments in beagle dogs, oral gavage
Experimental: The samples were detected by LC-MS/MS, and AUC, Cmax, and Tmax parameters were calculated by employing WinNonlin version 6.4.

[3] = background art; cited from earlier work
[4] = dog, blood, beagle dogs, P.O. 300 mg/kg, single oral gavage

CC/C(=C(/c1ccc(/C=C/C(=O)O)cc1)c1[nH]c2ccccc2c1Cl)c1ccc(F)cc1Cl [compound I-8]
solubility at 24 h ([1]; FaSSIF (simulated pre-meal intestinal fluid), read-out: Solubility in FaSSIF): 0.117 mg/mL (≈ 244 µM) | solubility at 24 h ([1]; FeSSIF (simulated post-meal intestinal fluid), read-out: Solubility in FeSSIF): 0.44 mg/mL (≈ 916 µM) | solubility at 24 h ([1]; purified water, read-out: Solubility in H2O): 0.008 mg/mL (≈ 16.7 µM) | AUC(0-t) [2, 4]: 613 µM·h | Cmax [2, 4]: 43.5 µM | Tmax [2, 4]: 6 h | MRT last ([2]; dog, blood, beagle dogs, P.O. 300 mg/kg, single oral gavage, read-out: MRT0-last): 10.6 h

CC/C(=C(/c1ccc(/C=C/C(=O)O)cc1)c1[nH]c2ccccc2c1Cl)c1ccc(F)cc1Cl [compound of formula (I)]
Solubility in biological media compared with compound 1-8 ([1]; biological media, versus compound 1-8): significantly improved | Solubility in water compared with free acid compound 1-8 ([1]; water, versus compound 1-8): nearly hundredfold improved | Amount of exposure in the organism compared with compound 1-8 ([2]; in vivo pharmacokinetic studies, versus compound 1-8): significantly increased

C[C@]12CC[C@@H]3c4ccc(O)cc4C[C@@H](CCCCCCCCC[S+]([O-])CCCC(F)(F)C(F)(F)F)[C@H]3[C@@H]1CC[C@@H]2O (some centres unmarked) [fulvestrant]
Oral bioavailability [3]: zero oral bioavailability
